Patent US20200346957A1, “BIOFILM […] TO MICROBIAL DESTRUCTION” (DRIPPING WET WATER, INC., priority 2019, published 2020)

System: biofilm within an infected cut
Experiment: Chlorine dioxide disrupts biofilm within an infected cut (Example 4)
Assay type: in vivo
Settings: retreated every 12 hours, after 36 hours
Description: FIGS. 3A, 3B, 3C, and 3D are photographs that show the progression of an infected cut at 0 hours, 12 hours, 24 hours, and 36 hours, respectively.
FIGS. 4A, 4B, 4C, and 4D are photographs that show the progression of an infected cut at 0 hours, 12 hours, 24 hours, and 36 hours, respectively.
Chlorine Dioxide and CURAD Antibacterial Bandages (benzalkonium chloride) are used in this example. The first of two infected cuts is exposed to 100 ppm of chlorine dioxide for 1 minute before the benzalkonium chloride bandage is applied. The second infected cut is not exposed to chlorine dioxide before the benzalkonium chloride bandage is applied. Both cuts are retreated every 12 hours. […] FIG. 4 illustrates that after 36 hours the second cut's infection, not treated with chlorine dioxide, actually increases.

Compound | progress of the cut's infection (FIG. 3) (infected cut exposed to 100 ppm chlorine dioxide for 1 minute before benzalkonium chloride bandage) | progress of the cut's infection (FIG. 4) (infected cut with benzalkonium chloride bandage only, no chlorine dioxide)
[O][Cl+][O-] [chlorine dioxide] | significantly reduced | 
benzalkonium chloride |  | no apparent effect
